Test results published in US20030036556A1, “Zonisamide use in headache” (priority 2001, published 2003).
Where two headings read alike, the source gives them in different places.

Assays:
[1] = test system: GABA/benzodiazepine receptor ionophore complex; settings: in vitro, cited from earlier work
[2] = test system: dopaminergic and serotonergic neurotransmission; settings: in vivo microdialysis; cited from earlier work
[3] = test system: chronic pain disorders, all with neuropathic pain; assay: Zonisamide treatment of chronic pain patients (Example 4); assay type: in vivo, human
Procedure: This study included 30 patients with various chronic pain disorders, all with neuropathic pain (Table 1). All patients had previously failed or responded minimally to numerous other anticonvulsants (neuronal stabilizing agents) for treatment of painful symptoms. Twenty-three patients were on such therapy at the time zonisamide therapy was initiated. Zonisamide therapy was initiated at 100 mg every fourth day for 3 to 6 doses, with an increase to every third day, then to every other day, and finally to a daily dose. Adjustments in the dose of zonisamide were made no more than every 2 weeks. Headache and pain scores were rated on a 0 to 10 numeric rating scale (NRS) by each patient.

[4] = test system: generalized seizures in the kindled rat model; settings: cited from earlier work
[5] = test system: T-type Ca2+ currents; settings: in vitro, cited from earlier work
[6] = test system: cortical focal seizures; settings: electrical stimulation of the visual cortex in cats; cited from earlier work
[7] = test system: interictal spikes and secondarily generalized seizures; settings: cortical freezing in cats; cited from earlier work
[8] = test system: CDH (chronic daily headache); assay: Zonisamide for prophylaxis of chronic daily headache (Example 2); assay type: in vivo, human; settings: for Mean number of headache days per month: baseline 22
Procedure: Sixteen patients who received zonisamide for prophylaxis of CDH (i.e., >15 headache days/month) for at least 3 months were included in this study. […] Zonisamide therapy was initiated at 100 mg/day, and 6 patients were titrated to a zonisamide dosage of 200 mg/day after 2 weeks. Patient headache diaries were used to record information, regarding headache frequency, duration, severity, and disability ratings. Headache severity and disability were rated using a 4-point scale (0=none; 1=mild; 2=moderate; 3=severe). Headache diaries and clinic records were used to determine mean headache duration, frequency, severity, disability for each patient 1 month prior to initiation of zonisamide therapy (baseline) and again 3 months after stable zonisamide dosage was established.

[9] = test system: rat hippocampal slices; settings: zonisamide 10-30 μg/mL; cited from earlier work
[10] = test system: sodium channels; settings: in vitro, cited from earlier work
[11] = test system: refractory migraines and mixed headache disorders; assay: Open-label adjunctive zonisamide treatment of refractory headache patients (Example 1); assay type: in vivo, human
Procedure: Thirty-three (33) patients from an active headache clinic population were selected for open-label treatment with zonisamide. All patients had refractory migraines and mixed headache disorders, as defined by International Headache Society criteria. All had failed or responded poorly to trials with other anticonvulsants as prophylactic therapy. Most patients (n=27) had failed at least 2 such agents, and 17 had failed 3 agents. […] (Table 1). Zonisamide was initiated as adjunctive therapy: 100 mg of the medication was given in the evening or at bedtime every fourth day for 4 to 5 doses. Consequently, dosing was increased to every third day, every other day, and finally to a daily dose. Dose adjustments of zonisamide were made in increments of 100 mg, every 2 to 3 weeks, with a daily maximum dose of 500 mg, in some cases. Headache severity was rated on a 0 to 10 numeric rating scale (NRS).

[12] = test system: interictal spikes and secondarily generalized seizures; settings: cortical application of tungstic acid gel in rats; cited from earlier work
[13] = test system: chronic pain disorders (neuropathic pain), refractory migraine headaches; assay: Zonisamide treatment of chronic pain and refractory headache patients (Example 3); assay type: in vivo, human
Excerpt: Twenty-five patients with various chronic pain disorders were selected for treatment with zonisamide. All had neuropathic pain of one kind or another. Fifteen had failed back/neck surgeries with ongoing radicular pain, 4 had complex regional pain syndrome (type 1), 4 had diabetic neuropathy, and 2 had painful sensory neuropathy. All had failed, or responded minimally at best, to trials of numerous other anticonvulsants (neuronal stabilizing agents) for prior treatment of pain symptoms. Eighteen were on such therapy at the time of starting zonisamide therapy. Twenty-two patients with refractory migraine headaches of mixed headache disorders were similarly selected for zonisamide therapy. Most (n=17) had failed 3 or more other neuronal stabilizing agents as prophylaxis therapy for their headaches. […] Zonisamide was begun at 100 mg every third day for 3 to 5 doses, with an increase to every-other-day dosing and then to a daily dose. Dosage changes were made every 2 weeks at a minimum. Headache and pain spores were rated on a 0 to 10 numeric rating scale by each patient.

[14] = test system: cultured mouse spinal cord neurons; settings: zonisamide 10-30 μg/mL; cited from earlier work

SMILES: NS(=O)(=O)Cc1noc2ccccc12 [zonisamide, 1,2-benzisoxazole-3-methanesulfonamide]
- binding to the GABA/benzodiazepine receptor ionophore complex ([1]; allosteric fashion): binds
- changes in chloride flux [1]: does not produce changes
- dopaminergic and serotonergic neurotransmission [2]: facilitates
- number of patients with no pain relief and/or reported side effects ([3]; 30 patients): 5 patients
- number of patients with slight (less than 25%) pain reductions ([3]; 30 patients): Five
- number of patients with pain reductions of 60% or greater ([3]; after at least 2 months of zonisamide therapy, 30 patients): 10 patients
- number of patients with 30% to 50% reductions in pain ([3]; after at least 2 months, 30 patients): 7 patients
- share of patients with 30% to 50% reductions in pain ([3]; of 30 patients): 23%
- share of patients with no pain relief and/or reported side effects ([3]; of 30 patients): 17%
- share of patients with pain reductions of 60% or greater ([3]; of 30 patients): 30%
- share of patients with slight (less than 25%) pain reductions ([3]; of 30 patients): 17%
- effect on threshold for generalized seizures [4]: anticonvulsant activity
- effect on voltage-dependent, transient inward currents (T-type Ca2+ currents) [5]: reduces
- effect on voltage-dependent, transient inward currents (T-type Ca2+ currents) ([5]; listed as Zonisamide): blocks
- duration of cortical focal seizures [6]: reduced the duration
- interictal spikes and secondarily generalized seizures [7]: suppressed
- Mean disability rating ([8]; 4-point scale (0=none to 3=severe), after 3 months, baseline 1.48): 1.12
- Mean headache severity rating ([8]; 4-point scale (0=none to 3=severe), after 3 months, baseline 1.84): 1.41
- Mean headache duration ([8]; after 3 months at stable dosage, mean dosage 137.5 mg/d, baseline 8.46): 6.41 h
- Mean number of headache days per month ([8]; after 3 months at stable dosage, mean dosage 137.5 mg/d, n=16): 5 days/month
- Mean number of headache days per month ([8]; after 3 months at stable dosage, mean dosage 137.5 mg/d, n=16, listed as Zonismide): 14.5 days/month
- decrease of mean disability rating ([8]; after 3 months vs baseline): 24%
- decrease of mean headache rating ([8]; after 3 months vs baseline): 23%
- reduction of mean headache duration ([8]; after 3 months vs baseline): 24%
- reduction of total headache time ([8]; after 3 months vs baseline): 50%
- reduction of mean number of headache days/month ([8]; after 3 months vs baseline, mean dosage 137.5 mg/d): 34%
- mean weight loss ([8]; in the 9 patients with weight loss): 11 lb.
- adverse events: number of patients with mild diarrhea ([8]; n=16): 2 patients
- adverse events: number of patients with weight loss ([8]; n=16): 9 patients
- tolerability ([8]; n=16, 3 months): well tolerated
- Total headache time ([8]; on zonisamide after 3 months, baseline 186): 93 hours/month
- neuronal or glial uptake of [3H]-GABA [9]: without affecting
- effect on sodium channels [10]: blocks
- effect on sodium channels ([10]; listed as Zonisamide): inhibits
- number of patients (n) with discontinuation due to side effects ([11]; 33 patients): 4
- number of patients (n) with no response ([11]; 33 patients): 3
- number of patients (n) with 25% to 50% decrease in headache frequency ([11]; after at least 2 months of zonisamide therapy, 33 patients): 8
- number of patients (n) with ≧65% decrease in headache frequency ([11]; after at least 2 months of zonisamide therapy, 33 patients, 10 still in titration): 6
- patients who did not respond ([11]; of 33 patients): 9 % of total
- patients who dropped the medication due to side effects ([11]; of 33 patients): 12 % of total
- interictal spikes and secondarily generalized seizures [12]: suppressed
- number of patients with pain reductions averaging 60% or better ([13]; 0 to 10 numeric rating scale): 6 patients
- number of patients with reductions in pain of 30% to 50% ([13]; 0 to 10 numeric rating scale): Six
- number of patients with slight reductions (less than 25%) ([13]; 0 to 10 numeric rating scale): Four
- number of patients with no pain relief and/or side effects ([13]; human, in vivo): 7 patients
- post-synaptic GABA or glutamate responses [14]: without affecting
- synaptically-driven electrical activity [14]: suppresses
